Earlier results in US20050042268A1, “Pharmaceutical composition and method for transdermal drug delivery” (priority 2003, published 2005).

C[C@]12CC[C@H]3[C@@H](CCC4=CC(=O)CC[C@@]43C)[C@@H]1CC[C@@H]2O [testosterone]
free testosterone as part of the total concentration in the blood: 4 to 8%
testosterone in the blood bound to protein: Over 90%
